Drawing on patent publication US5098932A, “Cyclic ether derivatives” (Imperial Chemical Industries PLC, ICI Pharma, priority 1988, dated 1992), this text covers IC50 for 1 molecule.

One test concerns cyclooxygenase (TxB2). As to the kind of experiment: In vitro heparinised human blood assay, A23187 challenge, TxB2 radioimmunoassay, test b). The class given is cell-based. Here is the method:
(§1) b) An in vitro assay system involving incubating a test compound with heparinised human blood, prior to challenge with the calcium ionophore A23187 and then indirectly measuring the inhibitory effects on 5-LO by assaying the amount of LTB4 using the specific radioimmunoassay described by Carey and Forder (F. Carey and R. A. Forder, Brit. J. Pharmacol. 1985, 84, 34P) which involves the use of a protein-LTB4 conjugate produced using the procedure of Young et alia (Prostaglandins, 1983, 26(4),605-613). The effects of a test compound on the enzyme cyclooxygenase (which is involved in the alternative metabolic pathway for arachidonic acid and gives rise to prostaglandins, thromboxanes and related metabolites) may be measured at the same time using the specific radioimmunoassay for thromboxane B2 (T×B2) described by Carey and Forder (see above). This test provides an indication of the effects of a test compound against 5-LO and also cyclooxygenase in the presence of blood cells and proteins. It permits the selectivity of the inhibitory effect on 5-LO or cyclooxygenase to be assessed.

The test system of another test is 5-LO (LTB4). As to the kind of experiment: In vitro heparinised human blood assay, A23187 challenge, LTB4 radioimmunoassay, test b). The class given is cell-based. Here is the method: as §1

Each structure is given as a SMILES string. A value given as a limit tells only on which side of the number the result lay.

Regarding `CCC1(c2cccc(OCc3ccc4ccccc4c3)c2)COC(C)(C)O1` (centres unmarked) [4-ethyl-2,2-dimethyl-4-[3-(naphth-2-ylmethoxy)phenyl]-1,3-dioxolane], the IC50 (commonly the concentration that gives 50% inhibition) in the test on cyclooxygenase (TxB2) is greater than 40 µM; in the test with 5-LO (LTB4), 0.1 µM.
